Source: the Kinase Knowledgebase extract (Sharma et al. 2016)

biological target: EGFR (human) (UniProt P00533)
Sequence (P00533 whole entry, looked up): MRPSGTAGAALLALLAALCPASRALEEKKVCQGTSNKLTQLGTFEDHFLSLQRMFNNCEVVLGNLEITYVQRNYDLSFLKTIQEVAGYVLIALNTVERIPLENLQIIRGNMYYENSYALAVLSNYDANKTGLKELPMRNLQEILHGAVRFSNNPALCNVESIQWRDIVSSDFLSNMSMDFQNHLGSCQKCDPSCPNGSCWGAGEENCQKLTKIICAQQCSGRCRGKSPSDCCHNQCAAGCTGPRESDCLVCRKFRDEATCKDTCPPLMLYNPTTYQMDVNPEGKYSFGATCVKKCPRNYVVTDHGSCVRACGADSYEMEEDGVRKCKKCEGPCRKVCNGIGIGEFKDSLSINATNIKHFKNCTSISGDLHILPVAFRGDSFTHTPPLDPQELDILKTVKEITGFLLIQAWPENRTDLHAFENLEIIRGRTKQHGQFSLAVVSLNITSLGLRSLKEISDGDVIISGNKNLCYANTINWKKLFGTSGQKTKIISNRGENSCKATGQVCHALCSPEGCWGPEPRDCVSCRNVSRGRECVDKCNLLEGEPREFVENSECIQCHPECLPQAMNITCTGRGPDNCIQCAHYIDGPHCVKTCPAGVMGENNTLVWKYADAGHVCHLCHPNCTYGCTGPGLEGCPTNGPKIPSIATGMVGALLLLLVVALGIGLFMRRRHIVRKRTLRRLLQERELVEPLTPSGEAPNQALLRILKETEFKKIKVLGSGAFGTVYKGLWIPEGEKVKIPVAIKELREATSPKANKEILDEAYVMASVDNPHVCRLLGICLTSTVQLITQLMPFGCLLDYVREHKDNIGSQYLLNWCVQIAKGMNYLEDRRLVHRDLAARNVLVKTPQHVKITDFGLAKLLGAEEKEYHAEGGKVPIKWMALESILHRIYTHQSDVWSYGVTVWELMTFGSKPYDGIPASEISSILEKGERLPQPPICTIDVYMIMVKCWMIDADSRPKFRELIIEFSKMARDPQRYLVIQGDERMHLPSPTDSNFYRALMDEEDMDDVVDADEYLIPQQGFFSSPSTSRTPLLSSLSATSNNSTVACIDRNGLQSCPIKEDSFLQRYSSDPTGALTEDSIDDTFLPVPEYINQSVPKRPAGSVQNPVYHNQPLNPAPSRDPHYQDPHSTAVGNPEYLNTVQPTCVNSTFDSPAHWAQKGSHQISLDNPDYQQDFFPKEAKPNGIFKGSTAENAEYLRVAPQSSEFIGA

Row | IC50 [nM] | Compound
1 | 100 to 1000 | O=S(=O)(Nc1cccc(-c2nc(N3CCOCC3)sc2-c2ccnc(Nc3ccc(N4CCOCC4)nc3)n2)c1F)c1c(F)cccc1F
2 | < 100 | CC(C)c1nc(-c2cccc(NS(=O)(=O)c3c(F)cccc3F)c2)c(-c2ccnc(Nc3ccc(N4CCCNCC4)nc3)n2)s1
3 | 100 to 1000 | CC(C)c1nc(-c2cccc(NS(=O)(=O)c3cccnc3)c2)c(-c2ccnc(Nc3ccc(N4CCOCC4)nc3)n2)s1
4 | 100 to 1000 | CC(C)c1nc(-c2ccc(F)c(NS(=O)(=O)c3c(F)cccc3F)c2)c(-c2ccnc(Nc3ccnc(N4CCOCC4)c3)n2)s1
5 | 100 to 1000 | CN1CCC(c2nc(-c3ccc(F)c(NS(=O)(=O)c4c(F)cccc4F)c3)c(-c3ccnc(Nc4ccc(N5CCOCC5)nc4)n3)s2)CC1
6 | 100 to 1000 | Cc1ccc(-c2nc(C(C)C)sc2-c2ccnc(Nc3ccc(N4CCOCC4)nc3)n2)cc1NS(=O)(=O)c1c(F)cccc1F
7 | < 100 | CC(C)c1nc(-c2cccc(NS(=O)(=O)c3c(F)cccc3F)c2)c(-c2ccnc(Nc3cccc(N4CCN(C)CC4)c3)n2)s1
8 | 100 to 1000 | Nc1nc(-c2ccc(F)c(NS(=O)(=O)c3c(F)cccc3F)c2)c(-c2ccnc(Nc3ccc(N4CCOCC4)nc3)n2)s1
9 | 100 to 1000 | CC(C)c1nc(-c2cc(F)cc(NS(=O)(=O)c3c(F)cccc3F)c2)c(-c2ccnc(Nc3ccc(N4CCOCC4)nc3)n2)s1
10 | 100 to 1000 | O=S(=O)(Nc1cc(-c2nc(N3CCCC3)sc2-c2ccnc(Nc3ccc(N4CCOCC4)nc3)n2)ccc1F)c1c(F)cccc1F
11 | 100 to 1000 | CN1CCN(c2nc(-c3ccc(F)c(NS(=O)(=O)c4c(F)cccc4F)c3)c(-c3ccnc(Nc4ccc(N5CCOCC5)nc4)n3)s2)CC1
12 | 100 to 1000 | CC(C)c1nc(-c2ccc(F)c(NS(=O)(=O)c3ccccc3C#N)c2)c(-c2ccnc(Nc3ccc(N4CCOCC4)nc3)n2)s1
13 | 100 to 1000 | Nc1nc(-c2cccc(NS(=O)(=O)c3c(F)cccc3F)c2)c(-c2ccnc(Nc3ccc(N4CCOCC4)nc3)n2)s1
14 | 100 to 1000 | CCNc1nc(-c2cccc(NS(=O)(=O)c3c(F)cccc3F)c2)c(-c2ccnc(Nc3ccc(N4CCOCC4)nc3)n2)s1
15 | 100 to 1000 | CC(C)c1nc(-c2cccc(NS(=O)(=O)c3c(F)cccc3F)c2)c(-c2ccnc(Nc3ccc(N4CCN5CCOC[C@H]5C4)nc3)n2)s1
16 | 100 to 1000 | CC(C)c1nc(-c2cccc(NS(=O)(=O)c3c(F)cccc3F)c2)c(-c2ccnc(Nc3ccc(N4CCOCC4)c(F)c3)n2)o1
17 | 100 to 1000 | O=S(=O)(Nc1cccc(-c2ncsc2-c2ccnc(Nc3ccc(N4CCOCC4)nc3)n2)c1)c1c(F)cccc1F
18 | 100 to 1000 | CC(C)c1nc(-c2cccc(NS(=O)(=O)c3c(F)cccc3F)c2)c(-c2ccnc(Nc3ccc(N4CCCN(CCS(C)(=O)=O)CC4)nc3)n2)s1
19 | 100 to 1000 | CN(C)c1nc(-c2ccc(F)c(NS(=O)(=O)c3c(F)cccc3F)c2)c(-c2ccnc(Nc3ccc(N4CCOCC4)nc3)n2)s1
20 | 100 to 1000 | CC(C)c1nc(-c2ccc(F)c(NS(=O)(=O)c3c(F)cccc3F)c2)c(-c2ccnc(Nc3ccc(N4CCN5CCOC[C@H]5C4)nc3)n2)s1
21 | 100 to 1000 | CC(C)c1nc(-c2ccc(F)c(NS(=O)(=O)c3c(F)cccc3F)c2)c(-c2ccnc(Nc3ccc(N4CCOCC4)nc3)n2)s1
22 | 100 to 1000 | CC(=O)N1CCN(c2ccc(Nc3nccc(-c4sc(C(C)C)nc4-c4cccc(NS(=O)(=O)c5cccc(F)c5)c4)n3)cn2)CC1

The next lines start with the compound.

Row | Compound | IC50 [nM]
23 | COc1cc(N2CCN(CCS(C)(=O)=O)CC2)c(C)cc1Nc1nccc(-c2sc(C3CCOCC3)nc2-c2cccc(NS(=O)(=O)c3c(F)cccc3F)c2)n1 | < 100
24 | COc1ccc(Nc2nccc(-c3sc(C(C)C)nc3-c3cccc(NS(=O)(=O)c4c(F)cccc4F)c3)n2)cc1N(C)C | < 100
25 | O=S1(=O)Cc2ccc(Nc3nccc(-c4sc(N5CCOCC5)nc4-c4cccc(NS(=O)(=O)c5c(F)cccc5F)c4F)n3)cc2C1 | 100 to 1000
26 | COc1cc(N2CCN(CCS(C)(=O)=O)CC2)c(C)cc1Nc1nccc(-c2sc(C3CCOCC3)nc2-c2cccc(NS(=O)(=O)c3c(F)cccc3F)c2F)n1 | < 100
27 | CCOc1ccc(Nc2nccc(-c3sc(N4CCCC4)nc3-c3cccc(NS(=O)(=O)c4c(F)cccc4F)c3)n2)cc1N1CCN(CCS(C)(=O)=O)CC1 | < 100
28 | COc1cc(N2CCC3(CC2)CCN(S(C)(=O)=O)CC3)c(C)cc1Nc1nccc(-c2sc(C(C)C)nc2-c2cccc(NS(=O)(=O)c3c(F)cccc3F)c2F)n1 | 100 to 1000
29 | COc1cc(N2CCN(CCS(C)(=O)=O)CC2)c(C)cc1Nc1nccc(-c2sc(C(C)C)nc2-c2cccc(NS(=O)(=O)c3cccnc3)c2)n1 | 100 to 1000
30 | COc1cc(N2CCN(CCS(C)(=O)=O)CC2)c(C)cc1Nc1nccc(-c2sc(C(C)C)nc2-c2cccc(NS(=O)(=O)c3c(F)cccc3F)n2)n1 | < 100
31 | COc1cc2c(cc1Nc1nccc(-c3sc(C(C)C)nc3-c3cccc(NS(=O)(=O)c4c(F)cccc4F)c3)n1)N(C(=O)CN(C)C)CC2 | 100 to 1000
32 | CCc1nc(-c2cccc(CNS(=O)(=O)c3ccccc3)c2)c(-c2ccnc(Nc3ccc(N4CCN(C(C)=O)CC4)nc3)n2)s1 | 100 to 1000
33 | COc1cc(N2CCN(CCS(C)(=O)=O)CC2)c(C)cc1Nc1nccc(-c2sc(C(C)C)nc2-c2cccc(NS(=O)(=O)c3ccco3)c2)n1 | < 100
34 | COc1cc(N2CCN(CCS(C)(=O)=O)CC2)c(C)cc1Nc1nccc(-c2sc(C(C)C)nc2-c2cccc(NS(=O)(=O)c3c(F)cccc3F)c2F)n1 | < 100
35 | CC(C)c1nc(-c2ccc(F)c(NS(=O)(=O)c3c(F)cccc3F)c2)c(-c2ccnc(Nc3ccc(N4CCN(CCF)CC4)c(F)c3)n2)s1 | 100 to 1000
36 | CN(C)c1nc(-c2ccc(F)c(NS(=O)(=O)c3c(F)cccc3F)c2)c(-c2ccnc(Nc3ccc(N4CCN(S(C)(=O)=O)CC4)nc3)n2)s1 | 100 to 1000
37 | COc1cc(Nc2nccc(-c3sc(C(C)C)nc3-c3cccc(NS(=O)(=O)c4c(F)cccc4F)c3)n2)cc(OC)c1OC1CCN(CCS(C)(=O)=O)CC1 | < 100
38 | COc1cc(OC2CCN(CCS(C)(=O)=O)CC2)c(C)cc1Nc1nccc(-c2sc(C(C)C)nc2-c2cccc(NS(=O)(=O)c3c(F)cccc3F)c2)n1 | < 100
39 | CCc1nc(-c2ccc(F)c(NS(=O)(=O)c3ccccc3)c2)c(-c2ccnc(Nc3ccc(N4CCN(C(C)C)CC4)cc3OC)n2)s1 | 100 to 1000
40 | CCc1nc(-c2cccc(CNS(=O)(=O)c3ccccc3)c2)c(-c2ccnc(Nc3ccc(N4CCN(CCS(C)(=O)=O)CC4)c(F)c3)n2)s1 | 100 to 1000
41 | Cc1cc(N2CCC(N3CCCCC3)CC2)ccc1Nc1nccc(-c2sc(C(C)C)nc2-c2cccc(NS(=O)(=O)c3c(F)cccc3F)c2)n1 | < 100
42 | COc1cc(N2CCN(CCS(C)(=O)=O)CC2)c(C)cc1Nc1nccc(-c2sc(N3CCOCC3)nc2-c2cccc(NS(=O)(=O)c3c(F)cccc3F)c2)n1 | < 100
43 | CC(C)c1nc(-c2ccc(F)c(NS(=O)(=O)c3c(F)cccc3F)c2)c(-c2ccnc(Nc3ccc(N4CCN(CCS(C)(=O)=O)CC4)c(F)c3)n2)s1 | 100 to 1000
44 | COc1cc(N2CCN(CCS(C)(=O)=O)CC2)c(C)cc1Nc1nccc(-c2sc(CC(C)C)nc2-c2cccc(NS(=O)(=O)c3c(F)cccc3F)c2)n1 | < 100

Row | Compound | IC50 [nM]
45 | COc1cc(N2CCN(CCS(C)(=O)=O)CC2)c(C)cc1Nc1nccc(-c2sc(N)nc2-c2cccc(NS(=O)(=O)c3c(F)cccc3F)c2)n1 | 100 to 1000
46 | COc1cc(OCCN2CCOCC2)c(C)cc1Nc1nccc(-c2sc(C(C)C)nc2-c2cccc(NS(=O)(=O)c3c(F)cccc3F)c2F)n1 | 100 to 1000
47 | CC(C)c1nc(-c2ccc(F)c(NS(=O)(=O)c3c(F)cccc3F)c2)c(-c2ccnc(Nc3cccc(CCS(N)(=O)=O)c3)n2)s1 | 100 to 1000
48 | COc1ccc(S(C)(=O)=O)cc1Nc1nccc(-c2sc(C(C)C)nc2-c2cccc(NS(=O)(=O)c3c(F)cccc3F)n2)n1 | 100 to 1000
49 | COc1ccc(S(C)(=O)=O)cc1Nc1nccc(-c2sc(C(C)C)nc2-c2cccc(NS(=O)(=O)c3c(F)cccc3F)c2F)n1 | 100 to 1000
50 | COc1cc(CCN2CCCCC2)c(F)cc1Nc1nccc(-c2sc(C(C)C)nc2-c2cccc(NS(=O)(=O)c3c(F)cccc3F)c2)n1 | 100 to 1000
51 | CC(C)c1nc(-c2cccc(NS(=O)(=O)c3c(F)cccc3F)c2)c(-c2ccnc(Nc3ccc(N4CCN(CCS(C)(=O)=O)CC4)c(F)c3)n2)s1 | 100 to 1000
52 | O=S(=O)(Nc1cc(-c2nc(N3CCOCC3)sc2-c2ccnc(Nc3ccc4c(c3)OCCO4)n2)ccc1F)c1c(F)cccc1F | 100 to 1000
53 | COc1cc(N2CCN(CCS(C)(=O)=O)CC2)c(C)cc1Nc1nccc(-c2sc(C3CC3)nc2-c2cccc(NS(=O)(=O)c3c(F)cccc3F)c2)n1 | 100 to 1000
54 | Cc1cc(Nc2nccc(-c3sc(C(C)C)nc3-c3ccc(F)c(NS(=O)(=O)c4c(F)cccc4F)c3)n2)ccn1 | 100 to 1000
55 | CCOc1ccc(Nc2nccc(-c3sc(C(C)C)nc3-c3ccc(F)c(NS(=O)(=O)c4c(F)cccc4F)c3)n2)cc1N1CCN(CCF)CC1 | < 100
56 | COc1ccc(Nc2nccc(-c3sc(C(C)C)nc3-c3cccc(NS(=O)(=O)Cc4ccccc4)c3)n2)cc1N1CCN(CCS(C)(=O)=O)CC1 | < 100
57 | COc1ccc(Nc2nccc(-c3sc(C(C)C)nc3-c3cccc(NS(=O)(=O)c4ccccc4)c3)n2)cc1N1CCN(CCC#N)CC1 | < 100
58 | O=S(=O)(Nc1cccc(-c2nc(N3CCCC3)sc2-c2ccnc(Nc3ccc(N4CCN(CCF)CC4)c(F)c3)n2)c1)c1c(F)cccc1F | < 100
59 | COc1cc(N2CCN(CCS(C)(=O)=O)CC2)c(C)cc1Nc1nccc(-c2scnc2-c2cccc(NS(=O)(=O)c3c(F)cccc3F)c2)n1 | < 100
60 | CCNc1nc(-c2cccc(NS(=O)(=O)c3ccccc3)c2)c(-c2ccnc(Nc3ccc(OCCN4CCCC4)c(F)c3)n2)s1 | < 100
61 | CC(C)c1nc(-c2cccc(NS(=O)(=O)c3c(F)cccc3F)c2)c(-c2ccnc(Nc3ccc(N4CCN(CCF)CC4)c(F)c3)n2)s1 | 100 to 1000
62 | CCc1nc(-c2cccc(NS(=O)(=O)c3ccccc3)c2)c(-c2ccnc(Nc3ccc(OC)c(N4CCN(CCS(C)(=O)=O)CC4)c3)n2)s1 | 100 to 1000
63 | CC(C)c1nc(-c2cccc(NS(=O)(=O)c3ccccc3)c2)c(-c2ccnc(Nc3ccc(F)c(N4CCN(CCS(C)(=O)=O)CC4)c3)n2)s1 | 100 to 1000
64 | CC(C)c1nc(-c2cccc(NS(=O)(=O)c3c(F)cccc3F)c2)c(-c2ccnc(Nc3ccc(N4CCN(C(C)C)CC4)cc3O)n2)s1 | 100 to 1000
65 | CC(=O)N1CCN(c2ccc(Nc3nccc(-c4sc(C(C)C)nc4-c4cccc(NS(=O)(=O)c5cn(C)cn5)c4)n3)cn2)CC1 | < 100
66 | CC(=O)N1CCN(c2ccc(Nc3nccc(-c4sc(C(C)C)nc4-c4cccc(NS(=O)(=O)C5CCCCC5)c4)n3)cn2)CC1 | 100 to 1000
